Data as given in patent publication US10150728B2, “Alkylene derivatives” (Shionogi & Co., Ltd., priority 2013, dated 2018).

Target: recombinant human ACC2 (Homo sapiens (Human), UniProt O00763)
Assay: Measurement of inhibitory activity on human ACC2 (MALDI-TOF MS, acetyl CoA to malonyl CoA conversion)
Type: biochemical
Details: Tables 155-159
Summary of the method: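 His-tagged human ACC2 (residues 27–2458) from baculovirus-infected Sf-9 cells was preincubated 1 h in pH 7.4 HEPES-KOH buffer with MgCl2, 6-10 mM potassium citrate, glutathione and BSA. Substrate solution held 1 mM ATP, 0.8 mM acetyl CoA and 25-50 mM bicarbonate. After 1–3 h at room temperature, malonyl CoA/(malonyl+acetyl CoA) was read by negative-mode MALDI-TOF MS; citrate, bicarbonate and time varied by enzyme lot.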

Chain of recombinant human ACC2 (O00763 27-2458): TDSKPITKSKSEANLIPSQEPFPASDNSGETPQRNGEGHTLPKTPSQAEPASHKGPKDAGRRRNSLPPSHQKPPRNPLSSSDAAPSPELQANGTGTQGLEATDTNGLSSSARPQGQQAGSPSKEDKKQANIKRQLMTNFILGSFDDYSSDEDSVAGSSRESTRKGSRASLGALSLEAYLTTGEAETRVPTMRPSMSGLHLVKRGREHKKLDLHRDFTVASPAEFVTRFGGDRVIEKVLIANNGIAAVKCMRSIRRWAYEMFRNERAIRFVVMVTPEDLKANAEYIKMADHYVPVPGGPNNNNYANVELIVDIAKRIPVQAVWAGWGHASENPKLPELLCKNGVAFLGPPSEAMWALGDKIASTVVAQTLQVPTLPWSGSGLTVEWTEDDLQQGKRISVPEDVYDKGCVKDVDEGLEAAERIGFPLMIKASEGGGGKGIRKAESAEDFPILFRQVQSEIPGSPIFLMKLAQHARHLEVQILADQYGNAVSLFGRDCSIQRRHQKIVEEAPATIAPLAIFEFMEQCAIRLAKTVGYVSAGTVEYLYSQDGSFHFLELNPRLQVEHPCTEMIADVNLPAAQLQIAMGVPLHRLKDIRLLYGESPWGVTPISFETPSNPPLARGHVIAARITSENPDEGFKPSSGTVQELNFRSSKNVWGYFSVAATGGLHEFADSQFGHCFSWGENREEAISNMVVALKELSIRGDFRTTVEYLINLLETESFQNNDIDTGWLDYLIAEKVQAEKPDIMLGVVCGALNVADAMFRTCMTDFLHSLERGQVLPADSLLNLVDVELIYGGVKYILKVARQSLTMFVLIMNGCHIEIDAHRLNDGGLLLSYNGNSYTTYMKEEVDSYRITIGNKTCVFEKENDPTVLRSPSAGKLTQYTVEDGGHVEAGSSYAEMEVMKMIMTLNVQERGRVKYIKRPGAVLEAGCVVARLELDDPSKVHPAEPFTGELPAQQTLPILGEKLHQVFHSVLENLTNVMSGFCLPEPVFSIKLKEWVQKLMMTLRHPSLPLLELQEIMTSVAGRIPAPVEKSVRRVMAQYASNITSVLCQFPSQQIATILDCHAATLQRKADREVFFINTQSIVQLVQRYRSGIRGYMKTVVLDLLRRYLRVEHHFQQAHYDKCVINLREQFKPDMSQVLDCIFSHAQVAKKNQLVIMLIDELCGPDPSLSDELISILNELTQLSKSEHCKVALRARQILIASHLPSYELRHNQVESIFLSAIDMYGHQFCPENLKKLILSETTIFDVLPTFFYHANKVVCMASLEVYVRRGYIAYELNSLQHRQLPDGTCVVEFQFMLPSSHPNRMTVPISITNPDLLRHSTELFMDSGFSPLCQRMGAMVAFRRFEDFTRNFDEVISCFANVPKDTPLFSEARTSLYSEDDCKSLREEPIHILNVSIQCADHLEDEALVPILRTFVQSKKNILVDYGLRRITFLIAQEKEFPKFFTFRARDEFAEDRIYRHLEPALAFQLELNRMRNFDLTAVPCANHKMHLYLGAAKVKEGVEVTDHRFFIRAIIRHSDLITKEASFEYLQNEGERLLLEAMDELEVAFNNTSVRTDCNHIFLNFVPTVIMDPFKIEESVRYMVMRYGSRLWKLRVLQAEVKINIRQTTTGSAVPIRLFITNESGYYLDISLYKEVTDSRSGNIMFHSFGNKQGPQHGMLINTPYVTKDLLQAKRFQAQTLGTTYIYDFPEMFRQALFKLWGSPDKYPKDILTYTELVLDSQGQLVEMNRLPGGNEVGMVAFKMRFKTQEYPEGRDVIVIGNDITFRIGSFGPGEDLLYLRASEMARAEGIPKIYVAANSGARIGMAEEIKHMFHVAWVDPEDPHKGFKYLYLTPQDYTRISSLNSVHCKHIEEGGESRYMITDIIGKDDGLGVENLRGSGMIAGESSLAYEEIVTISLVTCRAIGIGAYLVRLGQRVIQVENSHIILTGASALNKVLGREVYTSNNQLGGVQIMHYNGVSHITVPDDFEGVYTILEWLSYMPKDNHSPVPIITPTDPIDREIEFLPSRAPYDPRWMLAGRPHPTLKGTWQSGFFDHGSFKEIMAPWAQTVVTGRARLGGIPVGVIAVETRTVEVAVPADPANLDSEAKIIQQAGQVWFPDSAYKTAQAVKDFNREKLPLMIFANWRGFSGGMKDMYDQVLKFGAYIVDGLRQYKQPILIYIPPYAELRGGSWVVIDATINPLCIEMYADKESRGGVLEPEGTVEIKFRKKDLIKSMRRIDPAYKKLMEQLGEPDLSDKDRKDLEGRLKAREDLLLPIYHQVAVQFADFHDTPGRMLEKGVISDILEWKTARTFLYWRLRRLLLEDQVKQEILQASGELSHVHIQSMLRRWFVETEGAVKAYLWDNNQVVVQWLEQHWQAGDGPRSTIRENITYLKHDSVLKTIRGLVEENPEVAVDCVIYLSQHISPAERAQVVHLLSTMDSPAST

| IC50 [nM] | SMILES |
| --- | --- |
| 28 | CC(=O)N[C@@H](C)CO[C@H]1C[C@H](COc2nc3sc(OCC(F)F)nc3cc2Cl)C1 [Compound I-213] |
| 39 | CCOc1nc2c(Cl)c(F)c(OC[C@H]3C[C@H](OC[C@H](C)NC(C)=O)C3)nc2s1 [Compound I-214] |
| 21 | CC(=O)N[C@@H](C)CO[C@H]1C[C@H](COc2ccc3nc(N4CC(F)(F)C4)sc3n2)C1 [Compound I-215] |
| 8 | CCOc1nc2ccc(OC[C@H]3C[C@@H](OC[C@H](C)NC(C)=O)C3)nc2s1 [Compound I-216] |
| 8 | CC(=O)N[C@@H](C)CO[C@H]1C[C@@H](COc2ccc3nc(OCC(F)F)sc3n2)C1 [Compound I-217] |
| 8 | CC(=O)N[C@@H](C)CO[C@H]1C[C@H](COc2ccc3nc(OC4CC(F)(F)C4)sc3n2)C1 [Compound I-218] |
| 4 | CC(=O)N[C@@H](C)CO[C@H]1CC[C@H](Oc2cc3sc(OC4CC(F)(F)C4)nc3cn2)CC1 [Compound I-219] |
| 9 | CC(=O)N[C@@H](C)CO[C@H]1CC[C@H](Oc2cc3sc(OCC4CC4(F)F)nc3cn2)CC1 (stereo partly drawn) [Compound I-220] |
| 172 | CC(=O)N[C@@H](C)CO[C@H]1CC[C@H](Oc2cc3sc(OCc4ccc(F)cc4)nc3cn2)CC1 [Compound I-221] |
| 246 | CC(=O)N[C@@H](C)CO[C@H]1CC[C@H](Oc2cc3sc(OCC4(F)COC4)nc3cn2)CC1 [Compound I-222] |
| 48 | CC(=O)N[C@@H](C)CO[C@H]1CC[C@H](Oc2cc3sc(OC(C)CF)nc3cn2)CC1 (stereo partly drawn) [Compound I-223] |
| 34 | CC(=O)N[C@@H](C)CO[C@H]1CC[C@H](Oc2cc3sc(OC4CC4)nc3cn2)CC1 [Compound I-224] |
| 48 | CCOc1nc2ccc(OC[C@]3(F)C[C@H](OC[C@H](C)NC(C)=O)C3)nc2s1 [Compound I-225] |
| 103 | CC(=O)N[C@@H](C)CO[C@H]1C[C@@](F)(COc2ccc3nc(OCC(F)F)sc3n2)C1 [Compound I-226] |
| 36 | CC(=O)N[C@@H](C)CO[C@H]1C[C@H](COc2ccc3nc(N4CCC(F)(F)CC4)sc3n2)C1 [Compound I-227] |
| 27 | CC(=O)N[C@@H](C)CO[C@H]1C[C@H](COc2ccc3nc(N4CCC(F)(F)C4)sc3n2)C1 [Compound I-228] |
| 113 | CC(=O)N[C@@H](C)CO[C@H]1C[C@H](COc2ccc3nc(N4CCOCC4)sc3n2)C1 [Compound I-229] |
| 54 | CCN(C)c1nc2ccc(OC[C@H]3C[C@H](OC[C@H](C)NC(C)=O)C3)nc2s1 [Compound I-230] |
| 183 | CC(=O)N[C@@H](C)CO[C@H]1C[C@H](COc2ccc3nc(N(C)C)sc3n2)C1 [Compound I-231] |
| 21 | CCOc1nc2ccc(O[C@H]3CC[C@H](OC[C@H](CC)NC(C)=O)CC3)c(F)c2s1 [Compound I-232] |
| 84 | CCOc1nc2ccc(OC[C@H]3C[C@H](OC[C@H](CC)NC(C)=O)C3)c(F)c2s1 [Compound I-233] |
| 8 | CC(=O)N[C@@H](C)CO[C@H]1CC[C@H](Oc2ncc3nc(N4CCC4)sc3c2F)CC1 [Compound I-234] |
| 22 | CC(=O)N[C@@H](C)CO[C@H]1CC[C@H](Oc2ncc3nc(N4CC(F)C4)sc3c2F)CC1 [Compound I-235] |

| IC50 [nM] | SMILES |
| --- | --- |
| 102 | CC(=O)N[C@@H](C)CO[C@H]1CC[C@H](Oc2ccc3nc(N4CCCC(F)(F)C4)sc3c2F)CC1 [Compound I-236] |
| 891 | CC(=O)N[C@@H](C)CO[C@H]1CC[C@H](Oc2ccc3nc(N4CCC4c4ccccc4)sc3c2F)CC1 (stereo partly drawn) [Compound I-237] |
| 4 | CC(=O)N[C@@H](C)CO[C@H]1CC[C@H](Oc2ncc3nc(OC4CC4)sc3c2F)CC1 [Compound I-238] |
| 8 | CC(=O)N[C@@H](C)CO[C@H]1CC[C@H](Oc2ncc3nc(OCC(F)F)sc3c2F)CC1 [Compound I-239] |
| 7 | CC(=O)N[C@@H](C)CO[C@H]1CC[C@H](Oc2ncc3nc(OC(C)C)sc3c2F)CC1 [Compound I-240] |
| 173 | CC(=O)N[C@@H](C)CO[C@H]1CC[C@H](Oc2ncc3nc(N4CC(F)(F)C4)sc3c2F)CC1 [Compound I-241] |
| 7 | CC(=O)N[C@@H](C)CO[C@H]1C[C@H](COc2ccc3nc(OC4CCCC4)sc3n2)C1 [Compound I-242] |
| 28 | CC(=O)N[C@@H](C)CO[C@H]1C[C@H](COc2ccc3nc(OC4CCOCC4)sc3n2)C1 [Compound I-243] |
| 7 | CC(=O)N[C@@H](C)CO[C@H]1C[C@H](COc2ccc3nc(OC4CCCCC4)sc3n2)C1 [Compound I-244] |
| 4 | CC(=O)N[C@@H](C)CO[C@H]1C[C@H](COc2ccc3nc(OC4CCC4)sc3n2)C1 [Compound I-245] |
| 47 | CC(=O)N[C@@H](C)CO[C@H]1C[C@H](COc2ccc3nc(O[C@H]4CCOC4)sc3n2)C1 [Compound I-246] |
| 17 | CC(=O)N[C@@H](C)CO[C@H]1C[C@H](COc2ccc3nc(O[C@@H]4CCOC4)sc3n2)C1 [Compound I-247] |
| 9 | CC(=O)N[C@@H](C)CO[C@H]1C[C@H](COc2ccc3nc(OC4CCSCC4)sc3n2)C1 [Compound I-248] |
| 8 | CC(=O)N[C@@H](C)CO[C@H]1C[C@H](COc2ccc3nc(OC4CCSC4)sc3n2)C1 (stereo partly drawn) [Compound I-249] |
| 31 | COc1nc2ccc(OC[C@H]3C[C@H](OC[C@H](C)NC(C)=O)C3)nc2s1 [Compound I-250] |
| 22 | CC(=O)N[C@@H](C)CO[C@H]1C[C@@H](COc2ccc3nc(N4CC(F)(F)C4)sc3n2)C1 [Compound I-251] |
| 8 | CC(=O)N[C@@H](C)CO[C@H]1CC[C@H](Oc2ncc3nc(OC4CC(F)(F)C4)sc3c2F)CC1 [Compound I-252] |
| 11 | CC(=O)N[C@@H](C)CO[C@H]1CC[C@H](Oc2ncc3nc(OCC4CC4(F)F)sc3c2F)CC1 (stereo partly drawn) [Compound I-253] |
| 20 | CC(=O)N[C@@H](C)CO[C@H]1C[C@H](COc2ccc3nc(N4CC(F)(F)C(F)(F)C4)sc3n2)C1 [Compound I-254] |
| 24 | CC(=O)N[C@@H](C)CO[C@H]1C[C@H](COc2ccc3nc(N4CCC4)sc3n2)C1 [Compound I-255] |
| 39 | CC(=O)N[C@@H](C)CO[C@H]1C[C@H](COc2ccc3nc(N4CC(F)C4)sc3n2)C1 [Compound I-256] |
| 14 | CC(=O)N[C@@H](C)CO[C@H]1C[C@H](COc2ccc3nc(N4CCCC4)sc3n2)C1 [Compound I-257] |
| 99 | CC(=O)N[C@@H](C)CO[C@H]1C[C@H](COc2cc(C)c3nc(OC4CC4)sc3n2)C1 [Compound I-258] |

| IC50 [nM] | SMILES |
| --- | --- |
| 86 | CC(=O)N[C@@H](C)CO[C@H]1CC[C@H](Oc2cc3sc(O[C@H]4CCOC4)nc3cn2)CC1 [Compound I-259] |
| 102 | CC(=O)N[C@@H](C)CO[C@H]1CC[C@H](Oc2cc3sc(O[C@@H]4CCOC4)nc3cn2)CC1 [Compound I-260] |
| 17 | CC(=O)N[C@@H](C)CO[C@H]1CC[C@H](Oc2cc3sc(OCC4(C)CC4)nc3cn2)CC1 [Compound I-261] |
| 53 | CC(=O)N[C@@H](C)CO[C@H]1CC[C@H](Oc2cc3sc(OC[C@@H](C)F)nc3cn2)CC1 [Compound I-262] |
| 862 | CC(=O)N[C@@H](C)CO[C@H]1CC[C@H](Oc2cc3sc(OCC(C)(C)C#N)nc3cn2)CC1 [Compound I-263] |
| 372 | CC(=O)N[C@@H](C)CO[C@H]1CC[C@H](Oc2cc3sc(OCC4(C#N)CC4)nc3cn2)CC1 [Compound I-264] |
| 16 | CC(=O)N[C@@H](C)CO[C@H]1C[C@H](COc2ccc3nc(N4CCCCC4)sc3n2)C1 [Compound I-265] |
| 36 | CC(=O)N[C@@H](C)CO[C@H]1C[C@H](COc2nc3sc(N4CCC4)nc3cc2F)C1 [Compound I-266] |
| 58 | CC(=O)N[C@@H](C)CO[C@H]1C[C@H](COc2nc3sc(N4CC(F)C4)nc3cc2F)C1 [Compound I-267] |
| 42 | CC(=O)N[C@@H](C)CO[C@H]1C[C@H](COc2nc3sc(N4CC(F)(F)C4)nc3cc2F)C1 [Compound I-268] |
| 125 | CC(=O)N[C@@H](C)CO[C@H]1C[C@H](COc2ccc3nc(N4CCC4)sc3c2F)C1 [Compound I-269] |
| 116 | CC(=O)N[C@@H](C)CO[C@H]1C[C@H](COc2ccc3nc(N4CCCC4)sc3c2F)C1 [Compound I-270] |
| 83 | CC(=O)N[C@@H](C)CO[C@H]1CC[C@H](Oc2cc3sc(O[C@H]4C[C@@H](C#N)C4)nc3cn2)CC1 [Compound I-271] |
| 123 | C[C@@H](CO[C@H]1CC[C@H](Oc2ncc3nc(OC4CC4)sc3c2F)CC1)NC(=O)CO [Compound I-272] |
| 35 | CC(=O)N[C@@H](C)CO[C@H]1CC[C@H](Oc2ncc3nc(OC4COC4)sc3c2F)CC1 [Compound I-273] |
| 90 | CC(=O)N[C@@H](C)CO[C@H]1CC[C@H](Oc2ncc3nc(OCC4(F)COC4)sc3c2F)CC1 [Compound I-274] |
| 156 | CC(=O)N[C@@H](C)CO[C@H]1CC[C@H](Oc2ncc3nc(OCC4(C#N)CC4)sc3c2F)CC1 [Compound I-275] |
| 13 | CC(=O)N[C@@H](C)CO[C@H]1CC[C@H](Oc2ncc3nc(O[C@H]4CCOC4)sc3c2F)CC1 [Compound I-276] |
| 32 | CC(=O)N[C@@H](C)CO[C@H]1CC[C@H](Oc2ncc3nc(O[C@@H]4CCOC4)sc3c2F)CC1 [Compound I-277] |
| 87 | CC(=O)N[C@@H](C)CO[C@H]1CC[C@H](Oc2cc(C)c3nc(N4CC(F)(F)C4)sc3n2)CC1 [Compound I-278] |
| 8 | CCOc1nc2c(C)cc(O[C@H]3CC[C@H](OC[C@H](C)NC(C)=O)CC3)nc2s1 [Compound I-279] |
| 79 | CO[C@H]1C[C@H](Oc2nc3ccc(OC[C@H]4C[C@H](OC[C@H](C)NC(C)=O)C4)nc3s2)C1 [Compound I-280] |
| 41 | CO[C@H]1C[C@@H](Oc2nc3ccc(OC[C@H]4C[C@H](OC[C@H](C)NC(C)=O)C4)nc3s2)C1 [Compound I-281] |
